Data set [1] concerns patients with relapsing forms of clinically definite multiple sclerosis. Put plainly: Oral Cladribine in the treatment of relapsing forms of MS (Example 1 protocol). The format is in vivo, human. The source says:
The efficacy and safety of oral Cladribine administration, eventually multi-dose administration, according to the invention can be assessed for example following the protocol below:
A study of sixty patients with relapsing forms of clinically definite multiple sclerosis is undertaken. Each patient is first examined for normal hepatic, renal, and bone marrow functioning to establish baseline values.
Patients are selected from Male or Female, between 18 and 55 years of age who had one or more relapses within the prior 12 months. Female patients are non-pregnant female.
Each of the patients in Groups 2 and 3 receives 3 mg or 10 mg 2-CdA (1, 2 or 3 administration(s) a day depending on the patient's weight) combined in cyclodextrin formulation as described in WO 2004/087101, Example 3. The Compositions of the Cladribine formulations in 3 mg or 10 mg 2-CdA tablets containing hydroxypropyl-beta-cyclodextrin are listed in Table 2 below:
In Group 1 patients receive a placebo (saline) for 4 months followed by 8 months of no treatment.
Patients are monitored to determine whether there is any progression or improvement of brain lesions associated with progression of MS through MRI scans and neurological examination as described in Miller et al., 1996, above; Evans et al., 1997, above; Sipe et al., 1984, above; and Mattson, 2002, above. All patients have a baseline and MRI study (brain or spinal cord, according to localization of the lesions) at month 12.
The patient's disability progression and the time for having a first relapse are monitored as well as the proportion of relapse-fee patients at 24 months.
Lymphocyte markers and monocyte counts are monitored in the patients.

Data set [2] has as its system patients with primary progressive (PP) or secondary progressive (SP) multiple sclerosis. Conditions: Phase III; 0.07 mg/kg/day s.c., repeated for 2 or 6 months; cited from earlier work.
In data set [3] the test system is patients with remitting-relapsing multiple sclerosis. Conditions: 6 monthly courses of 5 days, total dose about 4-5.7 mg/kg, cited from earlier work.
For data set [4], the system named is patients with Chronic Progressive MS and Relapsing-Remitting MS. The note with it: Phase II; 0.1 mg/kg/day i.v. 7 days x 4 months or 0.07 mg/kg/day s.c. 5 days x 6 months; cited from earlier work.
Data set [5] concerns patients with multiple sclerosis. Conditions: with the highest doses; i.v. or s.c.; cited from earlier work.
[6] abbreviates: oral, succession of an induction treatment and maintenance treatments.

The source of these data is US8377903B2, “Cladribine regimen for treating multiple sclerosis” (Merck Serono SA, priority 2004, dated 2013).

As for `Nc1nc(Cl)nc2c1ncn2[C@H]1C[C@H](O)[C@@H](CO)O1` [Cladribine, 2-chloro-2′ deoxyadenosine], the “brain lesions (MRI scans)” value in data set [1] (Groups 2 and 3: oral 2-CdA total dose 1.75 mg/kg or 3.5 mg/kg) is “decrease in brain lesions”. For the same compound, in data set [1] (setting [6]), the adverse effects entry was “no severe adverse effect is observed” and the “efficacy of regimen on brain lesions” value was “efficient in decreasing brain lesions”. In data set [2], the MRI-measured brain lesions entry was “positive on the significant reduction of MRI-measured brain lesions”. Further, the “therapeutic efficacy of oral regimen versus i.v. infusion therapy” value in data set [3] is listed as “questioned”. For the same compound, in data set [3] (oral), the “side effects versus i.v. infusion study” value is “less severe”. Besides, in data set [4], the “effects on EDSS, SNRS scores and MRI findings” value is “positive effects”. Moreover, the “adverse effects (AEs)” value in data set [5] is given as “increased incidence of infections related to compromised immune function or myelosuppression”.
